Series [1] deals with Male C57BL6/j mice. As to the kind of experiment: PCP-induced locomotor activity in mice (phencyclidine model of schizophrenia). It is filed as in vivo. The note with it: 200 mg/kg i.p., PCP 5 mg/kg s.c., distance traveled over 60 minutes, FIG. 2. From the text:
PCP-induced increases in locomotor ambulation are a widely accepted animal model of schizophrenia. This model is based on the evidence that phencyclidine induces a schizophrenia-like syndrome in humans including increased motor behaviors, disruption of cognition and impairment of working memory (Steinpreis R E (1996) Behav Br Res. 74:45-55; Abi-Saab et al. (1998) Pharmacopsychiatry, 31:104-109). Further, it has also been shown that antipsychotic drugs that are effective in the treatment of schizophrenia reduce the locomotor activating effect of PCP (Gleason & Shannon (1997) Psychopharmacology, 129:79-84). […]
(§1) The effects of compounds on PCP- or amphetamine-induced locomotor activation in mice were tested. […] Locomotor activity (ambulations) was monitored by a videotracking system (VideoTrack, Viewpoint, Champagne au Mont d'Or, France) that recorded the ambulatory movements of mice. […] On test days, test compounds (200 mg/kg i.p. (intraperitoneal)) or vehicle were administered immediately before the PCP (5 mg/kg s.c. (sub-cutaneous), amphetamine (3.0 mg/kg s.c.) or saline injection. Mice were placed into the locomotor boxes immediately after the PCP, amphetamine or saline vehicle injection and their locomotor activity, defined as the distance traveled in centimeters (cm), was measured for 60 minutes. […]

For series [2], the target named is T1, native rat mGluR2 (Rattus norvegicus, UniProt P31421).
T1 construct: from tissue; host or cells: rat brain cortex membranes (Sprague-Dawley rats, Charles River Laboratories)
The experiment in a line: [35S]GTPγS binding assay using cortical rat brain membranes. It is filed as biochemical. The note with it: for Activity: left-ward shift of agonist mGluR2 concentration-response curve: selective mGluR2 agonist such as LY379268, rat cortical membranes, 3 or 10 μM of positive allosteric modulator. The text has this:
The [^35S]GTPγS binding is a functional membrane-based assay used to study G-protein coupled receptor (GPCR) function. This method is using a binding assay to assess the initial step in receptor-mediated G protein activation in membranes prepared from cells expressing recombinant GPCR or using membranes from discrete area of the rat brain. In brief, the assay is measuring the activation of G proteins by catalyzing the exchange of guanosine 5′-diphosphate (GDP) by guanosine 5′-triphosphate (GTP) at the α subunit. The GTP-bounded G proteins dissociate into two subunits, Gα-GTP and Gβγ, which in turn regulate intracellular enzymes and ion channels. GTP is rapidly hydrolysed by the Gα-subunit (GTPases) and the G protein is deactivated and ready for new GTP exchange cycle (Harper (1998) Curr Protoc Pharmacol 2.6.1-10, John Wiley & Sons, Inc.). [^35S]GTPγS, a non-hydrolyzed analogue of GTP, is used for this purpose.
This method is widely used to study receptor activation of G protein in membranes prepared from rat brain tissue, including mGluR2 receptors (Schaffhauser et al 2003, Pinkerton et al, 2004). mGluR2 receptors are expressed in the rat brain cortex (Mutel et al (1998) J. Neurochem. 71:2558-64; Schaffhauser et al (1998) Mol. Pharmacol. 53:228-33) and are coupled to Gαi-protein, a preferential coupling for this method.
[^35S]GTPγS binding assay using cortical rat brain membranes preparation was used and adapted from Schaffhauser et al ((2003) Mol. Pharmacol. 4:798-810) for the detection of the positive allosteric modulator properties of the compounds of this invention on native rat mGluR2. In order to eliminate the possible interference with group III Gαi-protein coupled mGluRs (mGluR4, mGluR7, mGluR8; mGluR6 is not expressed in the cortex (Laurie et al (1997) Neuropharmacol. 36:145-52)), the potentiation of the response to a selective mGluR2 agonist, such as DCG-IV (Cartmell et al. (1998) Br. J. Pharmacol. 123(3):497-504) or LY379268 (Monn et al. (1999) J. Med. Chem 42:1027-40), by compounds described in the present invention was performed.
Cortices were dissected out from brains of 200-300 g Sprague-Dawley rats (Charles River Laboratories, L'Arbresle, France). Tissues were homogenized in 6 volumes (vol/wt) of 10% sucrose at 4° C. using a glass-teflon homogenizer. The homogenate was centrifuged at 1250 g for 10 min, and the supernatant was centrifuged at 40,000 g for 20 min (4° C.). The pellet was resuspended in 25 ml water using a Polytron disrupter (Kinematica AG, Luzern, Switzerland) and centrifuged for 10 min at 3000 g. (4° C.). The supernatant was centrifuged at 40,000 g for 20 min (4° C.). The supernatant was discarded and the pellet washed twice by resuspension in 10 volumes 5 mM HEPES-KOH, pH 7.4. The homogenate was frozen and thawed twice and centrifuged at 40,000 g for 20 min. The final pellet was resuspended in 5 mM HEPES-KOH, pH 7.4 and stored at −80° C. before its use. Protein concentration was determined by the Bradford method (Bio-Rad protein assay, Reinach, Switzerland) with bovine serum albumin as standard.
Measurement of mGluR2 positive allosteric modulators properties in rat cortical membranes was performed as follows: rat cortical membrane (1.5 μg) were incubated in 96-well microplates for 15 min at 30° C. in assay buffer (50 mM HEPES pH 7.4, 100 mM NaCl, 5 mM MgCl2, 10 μM GDP, 10 μg/ml saponin, EGTA 0.2 mM) with increasing concentrations of positive allosteric modulator (from 1 nM to 10 μM) and a minimal concentration of DCG-IV or LY379268, a selective mGluR2 agonist, that has been determined in previous experiments and that corresponds to the EC20, a concentration that gives 20% of the maximal response of the agonist, and is in accordance to published data (Pin et al. (1999) Eur. J. Pharmacol. 375:277-294). […]

The subject of series [3] is Male C57BL6/j mice. The experiment in a line: Amphetamine-induced locomotor activity in mice (amphetamine model of schizophrenia). Format: in vivo. The note with it: 200 mg/kg i.p., amphetamine 3.0 mg/kg s.c., distance traveled over 60 minutes, FIG. 3.
Source text: Amphetamine-induced increases in locomotor ambulation are well known and are widely used as a model of the positive symptoms of schizophrenia. This model is based on evidence that amphetamine increases motor behaviors and can induce a psychotic state in humans (Yui et al. (2000) Ann NY Acad Sci 914:1-12). Further, it is well known that amphetamine-induced increases in locomotor activity are blocked by antipsychotics drugs that are effective in the treatment of schizophrenia (Arnt (1995) Eur J Pharmacol 283:55-62). […]
as §1
Statistical analyses were performed using GraphPad PRISM statistical software (GraphPad, San Diego, Calif., USA). Data were analyzed using unpaired t-tests. […]

A word on the melting point: it is the temperature, or range, at which the solid turns liquid.

T1 sequence (P31421 19-872): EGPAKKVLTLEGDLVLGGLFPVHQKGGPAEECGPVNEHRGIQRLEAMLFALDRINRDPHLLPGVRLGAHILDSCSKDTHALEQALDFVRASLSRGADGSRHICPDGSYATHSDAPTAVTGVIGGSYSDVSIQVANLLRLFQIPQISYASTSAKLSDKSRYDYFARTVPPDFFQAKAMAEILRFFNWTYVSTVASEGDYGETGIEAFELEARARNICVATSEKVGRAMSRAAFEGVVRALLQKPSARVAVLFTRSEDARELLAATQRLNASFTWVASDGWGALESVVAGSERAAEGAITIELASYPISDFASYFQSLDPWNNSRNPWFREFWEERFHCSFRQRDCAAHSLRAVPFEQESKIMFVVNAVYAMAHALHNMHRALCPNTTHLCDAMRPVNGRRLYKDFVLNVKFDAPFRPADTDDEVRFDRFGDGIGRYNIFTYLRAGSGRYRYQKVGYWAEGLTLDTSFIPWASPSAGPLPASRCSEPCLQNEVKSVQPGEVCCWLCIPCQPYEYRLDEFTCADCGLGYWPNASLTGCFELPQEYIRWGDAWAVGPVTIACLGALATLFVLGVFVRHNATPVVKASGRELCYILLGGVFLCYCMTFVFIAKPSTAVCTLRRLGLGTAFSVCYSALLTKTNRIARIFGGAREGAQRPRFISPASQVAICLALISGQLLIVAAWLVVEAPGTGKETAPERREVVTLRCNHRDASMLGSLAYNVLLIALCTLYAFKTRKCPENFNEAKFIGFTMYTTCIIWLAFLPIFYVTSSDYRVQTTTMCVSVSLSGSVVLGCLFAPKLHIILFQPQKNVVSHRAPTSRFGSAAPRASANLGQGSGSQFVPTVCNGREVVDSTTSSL

For the compound `COc1ccc(-c2ccc(=O)n(Cc3ccc(Cl)cc3F)c2)cc1` [4-16], the melting point was 88 °C. Also, in series [1], the “effect on the increase in locomotor activity induced by PCP” value was “significantly attenuated”. Further, the “ability to increase the [GTPγ35S] binding induced by DCG-IV” value in series [2] (10 μM compound with 50 nM DCG-IV, compared to agonist alone, FIG. 1) is “significantly potentiated”. Further, the “agonistic activity in the absence of DCG-IV” value in series [2] (10 μM compound without 50 nM DCG-IV, compared to buffer value, FIG. 1) is “no statistically significant agonistic activity”. In series [3], the “effect on the increase in locomotor activity induced by amphetamine” value was “significantly attenuated”.

Consider `O=c1c2ccccc2ccn1Cc1ccc(F)cc1` [13-01, 2-(4-Fluorobenzyl)isoquinolin-1(2H)-one], for which the melting point turned out to be 107 °C. Besides, in series [2], the “Activity: left-ward shift of agonist mGluR2 concentration-response curve” value (“Activity: left-ward shift” for short) is “++ (left-ward shift of agonist mGluR2 concentration-response curve [2- to 3.5-fold])”.

`CCCn1ccc2c(NCCc3ccc(O)cc3)cccc2c1=O` [13-05, 5-(4-Hydroxyphenethylamino)-2-propylisoquinolin-1(2H)-one] returned a melting point of 170 to 171 °C. In addition, the “Activity: left-ward shift” value in series [2] was “+++ (left-ward shift of agonist mGluR2 concentration-response curve [>3.5])”.

As to `O=c1ccc2ccccc2n1Cc1ccc(Cl)cc1` [15-04, 1-(4-Chlorobenzyl)quinolin-2(1H)-one], the melting point turned out to be 139 °C. For the same compound, the “Activity: left-ward shift” value in series [2] was “+ (left-ward shift of agonist mGluR2 concentration-response curve [<2])”.

In turn, `O=c1ccc(COc2ccccc2)cn1Cc1ccc(C(F)(F)F)nc1` [16-07] registered a melting point of 119 to 121 °C. In series [2], the “Activity: left-ward shift” value was “++ (left-ward shift of agonist mGluR2 concentration-response curve [2- to 3.5-fold])”.

The values above are taken from patent US8399493B2, “Pyridinone derivatives and their use as positive allosteric modulators of mGluR2-receptors” (Janssen Pharmaceuticals, Inc., priority 2004, dated 2013).
